The subject of assay [1] is secretion of interferon-beta from THP1 cells. Briefly: IFN-β secretion in THP1 cell culture (5 h). As to conditions: Homo sapiens, THP-1, 5 h, compound at 30 μM, 30 uM cGAMP = 100%, read-out: % Effect at 30 μM relative to 2′3′-cGAMP. The assay is classed as cell-based. In outline:
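Thawed THP1 cells (0.8×10^6/mL, RPMI with 0.5% FBS) exposed to compounds 1.5–30000 nM (0.3% DMSO) for 5 h at 37 °C. Supernatant IFN-β quantified by AlphaLISA. Percent effect normalised to 30 uM cGAMP and DMSO controls; EC50 from 4-parameter fit.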

The target of assay [2] is T1, full-length WT STING (Homo sapiens, UniProt Q86WV6, H232R).
T1 construct: AviTag (after gg linker) (C); HRV3C cleavage site (after gs linker) (C); HIS8 (C); made in house; host or cells: Trichoplusia ni (Hi-Five) insect cells infected with baculovirus (virus generated and amplified in Sf21 cells); used as a washed membrane preparation
As to the kind of experiment: 3H-cGAMP filtration binding assay (WT STING). As to conditions: competition with tritiated cGAMP, WT STING membrane. The method in brief:
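Competitive filtration binding of [3H]cGAMP (16 nM working stock) to T. ni membranes overexpressing full-length WT human STING, 60 min at RT in PBS. Bound radioactivity counted after GF/B filtration; 10-point 1:3 titration, EC50 from 4-parameter fit after control normalisation.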

Assay [3] concerns the target T2, full-length HAQ STING (Homo sapiens, UniProt Q86WV6, G230A/H232R/R293Q/R71H).
T2 construct: AviTag (after GG linker) (C); HRV3C cleavage site (after GS linker) (C); HIS8 (C); made in house; host or cells: Trichoplusia ni (Hi-Five) insect cells infected with baculovirus (virus generated and amplified in Sf21 cells); used as a washed membrane preparation
As to the kind of experiment: 3H-cGAMP filtration binding assay (HAQ STING). The settings on record: competition with tritiated cGAMP, HAQ STING membrane. In outline:
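Hi-Five (T. ni) membranes overexpressing the STING variant (2.2 ug/ml working) preincubated with compound 60 min at RT in PBS, then [3H]cGAMP (8 nM working stock) added for 60 min at RT. Bound radioactivity captured on GF/B filters and counted by scintillation; EC50 from 4-parameter fit of control-normalized activity.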

Activation and EC50 data for 15 compounds are collected here from US10793557B2, “Sting agonist compounds” (Merck Sharp & Dohme Corp., priority 2018, dated 2020).

T2 sequence (Q86WV6 with tags, fused parts or gaps R71H/G230A/H232R/R293Q): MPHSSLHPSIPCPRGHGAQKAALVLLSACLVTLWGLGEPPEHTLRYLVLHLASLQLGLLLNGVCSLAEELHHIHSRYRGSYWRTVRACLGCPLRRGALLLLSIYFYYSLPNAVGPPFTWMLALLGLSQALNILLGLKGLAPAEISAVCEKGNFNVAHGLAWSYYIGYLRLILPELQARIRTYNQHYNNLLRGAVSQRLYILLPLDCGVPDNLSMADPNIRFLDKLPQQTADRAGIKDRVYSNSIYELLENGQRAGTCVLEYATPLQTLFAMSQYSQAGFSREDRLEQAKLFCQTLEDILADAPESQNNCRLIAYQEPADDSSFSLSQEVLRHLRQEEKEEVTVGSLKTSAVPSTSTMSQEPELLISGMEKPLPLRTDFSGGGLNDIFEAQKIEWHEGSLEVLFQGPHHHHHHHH
T1 sequence (Q86WV6 with tags, fused parts or gaps H232R): as the sequence (Q86WV6 with tags, fused parts or gaps R71H/G230A/H232R/R293Q) above, with H71R, A230G, Q293R counted along it

By EC50 is commonly meant the concentration at which the effect is half-maximal. Lower therefore signals higher potency in that assay. On to `COc1cc2sc(C(=O)C[C@H](C)C(=O)O)cc2cc1OCCOc1cc2cc(C(=O)C[C@H](C)C(=O)O)sc2cc1OC` [Example 76, (2S,2′S)-4,4′-((ethane-1,2-diylbis(oxy))bis(6-methoxybenzo[b]thiophene-5,2-diyl))bis(2-methyl-4-oxobutanoic acid)], for which the activation at 30 µM in assay [1] was found to be 44%. Besides, the EC50 came out at 56 nM in assay [2] and 22 nM in assay [3].
As for `C[C@@H](CC(=O)c1cc2cc(OCCCOc3cc4cc(C(=O)C[C@H](C)C(=O)O)sc4cc3OC(F)F)c(OC(F)F)cc2s1)C(=O)O` [Example 79, (2S,2′S)-4,4′-(1,3-propanediylbis{oxy[6-(difluoromethoxy)-1-benzothiene-5,2-diyl]})bis(2-methyl-4-oxobutanoic acid)], in assay [1], the activation at 30 µM stood at 49%. The EC50 came out at 12 nM in assay [2] and 5 nM in assay [3].
Turning to `COc1cc2sc(C(=O)[C@H]3C[C@@H]3C(=O)O)cc2cc1OCCCOc1cc2cc(C(=O)[C@@H]3C[C@H]3C(=O)O)sc2cc1OC` [Example 80, rac-(1S,2S)-2-(5-(3-((2-((1R, 2R)-2-carboxy-cyclopropane-1-carbonyl)-6-methoxybenzo[b]thiophen-5-yl)oxy)propoxy)-6-methoxybenzo[b]thiophene-2-carbonyl)cyclopropane-1-carboxylic acid], the activation at 30 µM in assay [1] is 12%. Further, the EC50 in assay [2] amounted to 12700 nM; in assay [3], 1300 nM.
For `COc1cc2sc(C(=O)CCC(=O)O)cc2nc1OCCOc1c(OC)cc2sc(C(=O)CCC(=O)O)cc2c1F` [Example 81, 4-(5-(2-((2-(3-carboxypropanoyl)-4-fluoro-6-methoxybenzo[b]thiophen-5-yl)oxy)ethoxy)-6-methoxythieno[3,2-b]pyridin-2-yl)-4-oxobutanoic acid], the activation at 30 µM in assay [1] amounted to 120%. The EC50 worked out at 23 nM in assay [2] and 2 nM in assay [3].
Turning to `COc1cc2sc(C(=O)CCC(=O)O)cc2nc1OCCCOc1c(OC)cc2sc(C(=O)CCC(=O)O)cc2c1F` [Example 82, 4-(5-(3-((2-(3-carboxypropanoyl)-4-fluoro-6-methoxybenzo[b]thiophen-5-yl)oxy)propoxy)-6-methoxythieno[3,2-b]pyridin-2-yl)-4-oxobutanoic acid], the activation at 30 µM in assay [1] turned out to be 158%. The values for the EC50 in assay [2] and in assay [3] were 2 nM and 1 nM, respectively.
Regarding `COc1cc2sc(C(=O)CCC(=O)O)cc2nc1OCCOc1c(OC)cc2sc(C(=O)C[C@H](C)C(=O)O)cc2c1F` [Example 83, (S)-4-(5-(2-((2-(3-carboxypropanoyl)-6-methoxythieno[3,2-b]pyridin-5-yl)oxy)ethoxy)-4-fluoro-6-methoxybenzo[b]thiophen-2-yl)-2-methyl-4-oxobutanoic acid], the activation at 30 µM in assay [1] came out at 107%. In addition, the values for the EC50 in assay [2] and in assay [3] were 9 nM and 2 nM, respectively.
The matching figures for `COc1cc2sc(C(=O)C[C@H](C)C(=O)O)cc2cc1CCCOc1c(OC)cc2sc(C(=O)[C@@H]3C[C@H]3C(=O)O)cc2c1F` [Example 84, trans-2-(5-(3-(2-((S)-3-carboxybutanoyl)-6-methoxybenzo[b]thiophen-5-yl)propoxy)-4-fluoro-6-methoxybenzo[b]thiophene-2-carbonyl)-cyclopropanecarboxylic acid]: 148%, 1060 nM and 50 nM.
As to `COc1cc2sc(C(=O)C[C@H](C)C(=O)O)cc2c(F)c1OCCCOc1c(OC)cc2sc(C(=O)[C@@H]3C[C@H]3C(=O)O)cc2c1F` [Example 86, trans-2-(5-(3-((2-((S)-3-carboxybutanoyl)-4-fluoro-6-methoxybenzo[b]thiophen-5-yl)oxy)propoxy)-4-fluoro-6-methoxybenzo[b]thiophene-2-carbonyl)cyclopropane carboxylic acid], the activation at 30 µM in assay [1] came to 131%. In addition, the EC50 in assay [2] turned out to be 9 nM; in assay [3], 1 nM.
For `COc1cc2sc(C(=O)[C@H]3C[C@@H]3C(=O)O)cc2c(F)c1OCCCOc1c(OC)cc2sc(C(=O)[C@@H]3C[C@H]3C(=O)O)cc2c1F` [Example 87, trans-2-(5-(3-((2-((1R,2R)-2-carboxycyclopropanecarbony)-4-fluoro-6-methoxybenzo[b]thiophen-5-yl)oxy)propoxy)-4-fluoro-6-methoxybenzo[b]thiophene-2-carbonyl)cyclopropane carboxylic acid], the activation at 30 µM in assay [1] turned out to be 120%. Further, the results for the EC50 in assay [2] and in assay [3] were 1920 nM and 167 nM, respectively.
As to `COc1cc2sc(C(=O)C[C@H](C)C(=O)O)cc2cc1OCCCOc1c(OC)cc2sc(C(=O)[C@@H]3C[C@H]3C(=O)O)cc2c1F` [Example 89, trans-2-(5-(3-((2-((S)-3-carboxybutanoyl)-6-methoxybenzo[b]thiophen-5-yl)oxy)propoxy)-4-fluoro-6-methoxybenzo[b]thiophene-2-carbonyl)cyclopropane carboxylic acid], the activation at 30 µM in assay [1] worked out at 112%. In addition, the values for the EC50 in assay [2] and in assay [3] were 94 nM and 2 nM, respectively.
For the compound `COc1cc2cc(C(=O)C[C@H](C)C(=O)O)sc2cc1OCCCOc1c(OC)cc2sc(C(=O)[C@@H]3C[C@H]3C(=O)O)cc2c1F` [Example 90, trans-2-(5-(3-((2-((S)-3-carboxybutanoyl)-5-methoxybenzo[b]thiophen-6-yl)oxy)propoxy)-4-fluoro-6-methoxybenzo[b]thiophene-2-carbonyl)cyclopropane carboxylic acid], the activation at 30 µM in assay [1] was determined as 125%. Further, the EC50 in assay [2] turned out to be 978 nM; in assay [3] it was 58 nM.
Take `COc1cc2sc(C(=O)C[C@@H](C)C(=O)O)cc2cc1CCCOc1c(OC)cc2sc(C(=O)C[C@H](C)C(=O)O)cc2c1F` [Example 91, (R)-4-(5-(3-((2-((S)-3-carboxybutanoyl)-4-fluoro-6-methoxybenzo[b]thiophen-5-yl)oxy)propyl)-6-methoxybenzo[b]thiophen-2-yl)-2-methyl-4-oxobutanoic acid]: in assay [1], the activation at 30 µM is 109%. In addition, the values for the EC50 in assay [2] and in assay [3] were 30 nM and 7 nM, respectively.
For the compound `COc1cc2sc(C(=O)C[C@H](C)C(=O)O)cc2cc1OCCCCOc1cc2cc(C(=O)C[C@H](C)C(=O)O)sc2cc1OC` [Example 92, (2S,2′S)-4,4′-(5,5′-(butane-1,4-diylbis(oxy))bis(6-methoxybenzo[b]thiophene-5,2-diyl))bis(2-methyl-4-oxobutanoic acid)], the activation at 30 µM in assay [1] was 62%. For the same compound, the EC50 in assay [2] was 7 nM; in assay [3], 3 nM.
As to `COc1cc2sc(C(=O)C[C@H](C)C(=O)O)cc2cc1OCCCCOc1c(OC)cc2sc(C(=O)C[C@H](C)C(=O)O)cc2c1F` [Example 93, (S)-4-(5-(4-((2-((S)-3-carboxybutanoyl)-4-fluoro-6-methoxybenzo[b]thiophen-5-yl)oxy)butoxy)-6-methoxybenzo[b]thiophen-2-yl)-2-methyl-4-oxobutanoic acid], the activation at 30 µM in assay [1] is 87%. Moreover, the EC50 came out at 3 nM in assay [2] and 1 nM in assay [3].
As to `COc1cc2sc(C(=O)C[C@H](C)C(=O)O)cc2cc1OCCCCOc1cc2sc(C(=O)C[C@H](C)C(=O)O)cc2cc1OC` [Example 94, (S)-4-(5-(4-((2-((S)-3-carboxybutanoyl)-5-methoxybenzo[b]thiophen-6-yl)oxy)butoxy)-6-methoxybenzo[b]thiophen-2-yl)-2-methyl-4-oxobutanoic acid], the activation at 30 µM in assay [1] stood at 100%. Moreover, the EC50 was 131 nM in assay [2] and 6 nM in assay [3].
